In article PMC5075806, “SIKs control osteocyte responses to parathyroid hormone” (Nature Communications, 2016):

Legend:
SIK3 = SIK3 (Homo sapiens, UniProt Q9Y2K2); assay: DiscoverX scanEDGE competition binding panel at […] (SIK3 listed as QSK); value in Supplementary Table […]
SIK2 = SIK2 (Homo sapiens, UniProt Q9H0K1); assay: DiscoverX competition binding assay with DNA/phage-tagged kinase, qPCR readout, Kd curves
Chain of SIK2 (Q9H0K1 whole entry): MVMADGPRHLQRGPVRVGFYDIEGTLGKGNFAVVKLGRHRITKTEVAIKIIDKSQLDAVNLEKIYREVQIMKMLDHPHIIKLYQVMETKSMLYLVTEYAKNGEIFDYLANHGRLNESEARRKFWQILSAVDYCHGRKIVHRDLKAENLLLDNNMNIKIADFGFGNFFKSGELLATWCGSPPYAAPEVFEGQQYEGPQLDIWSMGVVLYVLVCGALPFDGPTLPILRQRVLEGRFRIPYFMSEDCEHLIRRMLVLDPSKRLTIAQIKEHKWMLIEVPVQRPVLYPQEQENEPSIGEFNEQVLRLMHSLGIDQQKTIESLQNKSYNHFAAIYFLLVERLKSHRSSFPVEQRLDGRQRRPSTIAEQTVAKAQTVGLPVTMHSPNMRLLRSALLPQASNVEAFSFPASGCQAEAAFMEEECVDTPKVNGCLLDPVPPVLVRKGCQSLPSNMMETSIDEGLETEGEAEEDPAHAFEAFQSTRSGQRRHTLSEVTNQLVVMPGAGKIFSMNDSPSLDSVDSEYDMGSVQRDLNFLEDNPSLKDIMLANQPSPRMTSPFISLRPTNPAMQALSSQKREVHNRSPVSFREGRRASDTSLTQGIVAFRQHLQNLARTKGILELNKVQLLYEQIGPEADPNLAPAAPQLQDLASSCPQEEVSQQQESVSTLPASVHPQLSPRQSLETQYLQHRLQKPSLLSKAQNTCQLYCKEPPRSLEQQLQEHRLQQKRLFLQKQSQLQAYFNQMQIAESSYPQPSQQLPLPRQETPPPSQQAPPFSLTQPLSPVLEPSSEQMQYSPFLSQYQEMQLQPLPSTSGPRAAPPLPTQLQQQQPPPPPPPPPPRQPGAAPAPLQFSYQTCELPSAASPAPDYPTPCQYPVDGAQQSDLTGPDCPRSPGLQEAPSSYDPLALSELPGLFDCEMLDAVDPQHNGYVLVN

Chain of SIK3 (Q9Y2K2 whole entry): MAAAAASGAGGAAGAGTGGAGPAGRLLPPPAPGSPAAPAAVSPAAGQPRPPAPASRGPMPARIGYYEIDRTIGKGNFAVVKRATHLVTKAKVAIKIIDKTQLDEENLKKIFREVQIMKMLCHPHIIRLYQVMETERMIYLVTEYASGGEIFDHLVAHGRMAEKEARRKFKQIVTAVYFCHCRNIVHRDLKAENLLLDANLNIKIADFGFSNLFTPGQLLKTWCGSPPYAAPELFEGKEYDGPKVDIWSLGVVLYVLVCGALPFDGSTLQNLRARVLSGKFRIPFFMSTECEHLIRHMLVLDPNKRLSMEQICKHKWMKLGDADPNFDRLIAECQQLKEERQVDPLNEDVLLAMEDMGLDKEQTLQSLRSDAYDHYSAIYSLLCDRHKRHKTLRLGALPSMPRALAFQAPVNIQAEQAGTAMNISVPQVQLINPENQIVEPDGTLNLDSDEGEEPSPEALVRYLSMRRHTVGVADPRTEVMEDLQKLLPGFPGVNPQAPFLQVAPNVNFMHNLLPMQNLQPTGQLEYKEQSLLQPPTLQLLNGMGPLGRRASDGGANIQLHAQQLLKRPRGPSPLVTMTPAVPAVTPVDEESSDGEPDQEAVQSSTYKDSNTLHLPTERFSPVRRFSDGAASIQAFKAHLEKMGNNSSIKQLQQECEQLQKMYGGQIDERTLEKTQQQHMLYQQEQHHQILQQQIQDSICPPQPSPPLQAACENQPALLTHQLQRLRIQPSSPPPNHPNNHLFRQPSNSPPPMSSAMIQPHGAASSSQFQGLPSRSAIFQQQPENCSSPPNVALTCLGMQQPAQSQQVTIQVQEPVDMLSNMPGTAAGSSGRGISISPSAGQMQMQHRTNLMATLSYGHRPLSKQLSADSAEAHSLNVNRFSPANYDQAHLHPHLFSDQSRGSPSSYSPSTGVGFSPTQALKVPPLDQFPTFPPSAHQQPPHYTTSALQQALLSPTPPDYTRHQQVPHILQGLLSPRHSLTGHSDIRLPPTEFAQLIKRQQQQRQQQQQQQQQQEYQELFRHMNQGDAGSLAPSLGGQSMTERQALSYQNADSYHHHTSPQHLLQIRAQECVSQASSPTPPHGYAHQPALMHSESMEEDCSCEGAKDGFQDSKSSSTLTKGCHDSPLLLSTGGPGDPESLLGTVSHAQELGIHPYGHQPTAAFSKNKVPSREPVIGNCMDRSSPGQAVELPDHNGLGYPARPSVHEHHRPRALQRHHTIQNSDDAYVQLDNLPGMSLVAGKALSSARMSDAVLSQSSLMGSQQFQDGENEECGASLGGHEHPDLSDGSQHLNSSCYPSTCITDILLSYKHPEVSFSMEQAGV

Kd (SIK2): 7.1 nM
SMILES: COc1ccc(N2C(=O)N(c3c(C)cccc3C)Cc3cnc(Nc4ccc(C5CCN(C)CC5)cc4OC)nc32)c(OC)c1 [YKL-05-093]
DiscoverX scanEDGE competition binding panel at 71 nM (SIK3 listed as QSK); valu (SIK3): both inhibitors potently target SIK3 in addition to SIK2
